Source: patent publication US7919459B2, “Use of C5a receptor antagonist in the treatment of fibrosis” (Promics Pty Limited, priority 2002, dated 2011)
Several values for one entry are separate records, joined by “and”; a condition that tells them apart may be missing. Equal entries are not always repeated.

Assays:
[1] = test system: streptozotocin-induced diabetes in rats; details: streptozotocin-induced diabetes in rats (Miric G, et al., 2001); cited from earlier work
[2] = test system: bleomycin-instilled male Wistar rats; test: Bleomycin-induced pulmonary fibrosis in rats: lung and body weight, histology, collagen deposition; details: for Body weight / Left lung weight / Ratio (lung weight to body weight): 7-9 days after intra-tracheal bleomycin, PMX53 10 mg/kg p.o. daily; for collagen deposition in lung: acute lung inflammation
Method: Male Wistar rats, 6 weeks of age, were used. The rats were divided into 5 groups:
Group 1: bleomycin instillation only (n=9)
Group 2: saline instillation only (n=3)
Group 5: Untreated rats maintained in the same environment as the other groups (n=3).
Drug-treated rats were given drug for 3 days before bleomycin administration.
One intra-tracheal instillation of bleomycin at a dose of 0.5 mg/100 g (0.7 U/100 g) in 200 μl of saline was performed on Day 1, as described by Taylor et al., (2002). Rats were anaesthetized by inhalation of 5% or less halothane via a vaporizer. After a local spray of Xylocalne to prevent airway spasm, the rats were intubated and a slow injection of bleomycin or sline control was completed. The rats were then rotated gently for about 1-2 minutes to allow the solution to diffuse evenly into both lungs (Christensen et al 2000). Rats were kept in the fume cupboard until totally recovered, and then monitored for up to 18 days. Body weight, food and water intake, and respiration were monitored daily.
Respiration was elevated as follows: Score 0, normal respiration; Score 1, increased rate of breathing; and Score 2, mouth open respiration. Rats were euthanased before the end of the experimental period, if they consistently lost more than 10% bodyweight for 48 hours, had Score 2 respiration or had Score 1 respiration for 48 hours.
At the end of this period the rats were killed by exsanguination under anaesthesia, so that the lungs were clear of blood. For each rat, the left lung was immediately frozen in liquid nitrogen and stored at −20° C. for quantitative collagen analysis using hydroxyproline assay. The right lung was fully inflated and fixed with 10% formulated formalin by airway gravity fixation at a pressure of 30 cm water for 1 minute. Haematoxylin and eosin (H&E) and Picro Sirius Red (PR) staining for collagen were performed to assess collagen deposition in the lung. For quantitation of collagen stained with PR, polarized light images were converted to grey scale, and the total number of white pixels (specific for collagen) per image was determined as a percentage of the total pixel area. The procedure was applied to a total of four fields in the alveolar area and two fields in the peribronchial area and blood vessels per sample (Wang et al, 2000). The largest lobe of the right lung (from 4 lobes) in each rat was chosen. The data was analysed using the program “Sion Image”.
Data were compiled as the means±SE in the study. Tests of significance were obtained by ANOVA followed by Student-Newman-Keuls post analysis.

[3] = test system: bleomycin-instilled male Wistar rats; test: Hydroxyproline assay of lung, bleomycin-induced pulmonary fibrosis; assay type: in vivo, rat; details: 18 days after bleomycin instillation
Method: (§1) The data was analysed using the program “Sion Image”.
Hydroxyproline assay was performed by the method of Christensen et al 1 (2000). Lung tissue was excised, trimmed free of surrounding conducting airways, and homogenized in 2 mls saline. A 1 ml aliquot of lung homogenate was hydrolysed in 6N HCl (0.5 ml of homogenate and 0.5 ml of 12N HCl) at 110° C. for 12 hours; 50 μl aliquots were added to 1 ml of 14% chloramine T, 10% n-propanol, and 0.5M sodium acetate, pH 6.0. After 20 min at 22° C., 1 ml of Ehrlich's solution (1M p-dimethylaminobenzaldehyde in 70% n-propanol and 20% perchloric acid) was added and allowed to incubate at 65° C. for 15 min. Absorbance was measured at 550 nm, and the amount of hydroxyproline was determined against a standard curve generated with the use of known concentrations of reagent-grade hydroxyproline.

[4] = test system: bleomycin-instilled male Wistar rats; test: Picro Sirius Red (PR) staining for collagen in lung, bleomycin-induced pulmonary fibrosis; assay type: in vivo, rat; details: 18 days after bleomycin, individual rats, n = 3-4
Method: as §1

[5] = test system: L-NAME-treated male Wistar rats; test: Echocardiographic analysis of cardiac function, L-NAME rats; assay type: in vivo, rat
Method: After 4 weeks of L-NAME treatment, heart function was determined in vivo by echocardiography and in vitro using the isolated Langendorff heart preparation described below. Collagen deposition was measured by image analysis using laser confocal microscopy of picrosirius red-stained cardiac slices, as described below.
Cardiac function was estimated in vivo using echocardiography, using conventional methods.

[6] = test system: L-NAME-treated male Wistar rats; test: Collagen distribution and inflammatory cells in heart and kidney sections (picrosirius red image analysis), L-NAME rats; assay type: in vivo, rat
Method: Collagen deposition was measured by image analysis using laser confocal microscopy of picrosirius red-stained cardiac slices, as described below. […] The stained sections were analyzed with an Image Pro plus analysis program using an Olympus BH2 microscope, with results expressed as a percentage of red area in each screen. At least 4 areas were examine in each heart.

[7] = test system: L-NAME-treated male Wistar rats; test: L-NAME-induced hypertension/cardiac fibrosis in rats: intake, growth, tail-cuff blood pressure, organ weights; assay type: in vivo, rat
Method: Male Wistar rats (8 weeks old) were obtained from the Central Animal Breeding House of The University of Queensland.
This agent was administered at a dosage of 1 mg/kg/day orally for 4 days before rats were additionally treated with nitro-L-arginine methyl ester (L-NAME) for 4 weeks, i.e. a total duration of treatment of antagonist of 32 days. L-NAME administration produces hypertension and cardiac remodelling as a result of inhibition of the production of nitric oxide (NO).
L-NAME was administered at a concentration of 400 mg/l in the drinking water for 4 weeks to give a mean daily intake of 18.7±0.4 mg L-NAME (41.4±0.8 mg/kg mean body weight). Body weight and food and water intakes were measured daily.
Systolic blood pressure was measured in selected unanaesthetised rats, using a tail-cuff method.

[8] = test system: L-NAME-treated male Wistar rats; test: Isolated Langendorff heart preparation (diastolic stiffness), L-NAME rats; assay type: in vivo, rat
Method: The Langendorff isolated heart preparation was used to determine the diastolic stiffness of the left ventricles ex vivo. […] To assess myocardial stiffness in isolated Langendorff hearts, stress (σ, dyne/cm2) and tangent elastic modulus (E, dyne/cm2) for the […] equator of the left ventricle were calculated by assuming spherical geometry of the ventricle and considering the […] equatorial region as representative of the remaining myocardium: […] Myocardial diastolic stiffness is calculated as the diastolic stiffness constant (k, dimensionless), the slope of the linear relation between E and σ (Mirsky and […], 1973). To assess contractile function, maximal +dP/dt was calculated at a diastolic pressure of 5 mmHg. […] The negative log EC50 of the increase in either force of contraction in mN or rate of contraction in beats/min was determined from the concentration giving half-maximal responses in individual concentration-response curves. Renal function results were corrected for kidney wet weight measured at the end of the experiment.

[9] = L-NAME rats, echocardiographic M-mode
[10] = L-NAME rats + PMX53 1 mg/kg/day orally

Molecule: Cc1ccc(=O)n(-c2ccccc2)c1 [pirfenidone, 5-methyl-1-phenyl-2-(1H)-pyridone]
- cardiac fibrosis and increase in cardiac stiffness [1]: can prevent and partially reverse

Molecule: Bleomycin [reference compound]
- Body weight [2]: 226 + 8.083 g
- Left lung weight [2]: 1.004 ± 0.04 g
- Ratio (lung weight to body weight) [2]: 4.47 ± 0.46 ×10^−3
- lung/body weight ratio ([2]; 18 days after bleomycin instillation): did not show a significant difference
- collagen deposition in lung ([2]; 7-9 days after bleomycin): significant increase
- hydroxyproline levels in the rat lungs [3]: significantly increased
- PR staining [4]: 0.01 % of the total pixel area and 0.21 % of the total pixel area and 0.78 % of the total pixel area and 1.73 % of the total pixel area

Molecule: AcF-[OPdChaWR] [PMX53]
- Body weight [2]: 228 + 7.583 g
- Left lung weight [2]: 0.974 ± 0.132 g
- Ratio (lung weight to body weight) [2]: 4.25 ± 1.07 ×10^−3
- E/A ratio (early to atrial mitral valve inflow rates) ([5]; L-NAME rats): significantly normalised
- cardiac output ([5]; L-NAME rats): significantly normalised
- diastolic volume ([5]; L-NAME rats): significantly normalised
- left ventricular internal diameter in diastole [5, 9]: normalised
- left ventricular wall thickness in diastole [5, 9]: normalised
- any parameter measured by echocardiographic analysis ([5]; control rats): did not significantly alter
- glomerular collagen concentrations in the kidneys ([6]; L-NAME rats): normalized
- collagen deposition restricted to % of L-NAME only, kidney interstitium [6, 10]: 30%
- collagen deposition restricted to % of L-NAME only, right ventricle interstitial [6, 10]: 44%
- collagen deposition restricted to % of L-NAME only, right ventricle perivascular [6, 10]: 37%
- collagen increase as % of the increase observed in rats treated with L-NAME only, left ventricular interstitial [6, 10]: 23%
- collagen increase as % of the increase observed in rats treated with L-NAME only, left ventricular perivascular [6, 10]: 43%
- inflammatory cell infiltration into left or right ventricles ([6]; following L-NAME treatment): totally prevented
- increase in systolic blood pressure of L-NAME rats ([7]; L-NAME + antagonist versus L-NAME only): 16 mmHg
- left ventricular wet weight ([7]; L-NAME rats): increased
- blood pressure ([7]; control rats): non-significant increase
- systolic blood pressure ([7]; tail-cuff, unanaesthetised rats, day 32, L-NAME rats with or without PMX53 1 mg/kg/day orally): 176±3 mmHg
- developed pressure and contractility ([8]; isolated heart): without altering
- diastolic stiffness constant ([8]; left ventricle ex vivo): prevented

Molecule: CC(=O)S[C@@H]1CC2=CC(=O)CC[C@]2(C)[C@H]2CC[C@@]3(C)[C@@H](CC[C@@]34CCC(=O)O4)[C@H]12 [spironolactone]
- cardiac fibrosis and increase in cardiac stiffness [1]: can prevent and partially reverse

Molecule: CC(=O)N[C@@H](Cc1ccccc1)C(=O)N[C@H]1CCCNC(=O)[C@H](CCCNC(=N)N)NC(=O)[C@H](Cc2c[nH]c3ccccc23)NC(=O)[C@@H](CC2CCCCC2)NC(=O)[C@@H]2CCCN2C1=O [PMX53, AcF-[OPdChaWR]]
- lung histology (patchy lesions), treated versus non-treated ([2]; 7-9 days after bleomycin, H&E, n=4 per group): no significant difference
- collagen deposition in lung ([2]; 7-9 days after bleomycin): no significant difference
- toxic lung inflammation induced by bleomycin ([2]; acute stage): failure
- hydroxyproline levels in the rat lungs [3]: significantly reduced
- PR staining ([4]; listed as Bleo + PMX53): 1.43 % of the total pixel area and 0.06 % of the total pixel area and 0.01 % of the total pixel area and 0.77 % of the total pixel area
